US20150148377A1, “Quinoline Derivatives” (NOVARTIS AG, priority 2011, published 2015)

Target: T1, PI3K delta (Homo sapiens, UniProt O00329)
T1 construct: for the full-length p110-d subunit are generated and fused by overlapping PCR; His tag (C); made in house; host or cells: baculovirus; Tn5 (Trichoplusia ni) or TiniPro insect cells
Test: Enzymatic PI3K delta isoform inhibition (lipid kinase activity, Kinase-Glo)
Assay type: biochemical
Conditions: enzymatic assay
How it was run: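 Preferred format: PI3Kδ 10 nM with PI 10 μg/mL and ATP 1 μM in Tris 10 mM pH 7.5, MgCl2 3 mM, NaCl 50 mM, CHAPS, DTT; 60 min at RT, 8 concentrations. ATP depletion read by Kinase-Glo luminescence; IC50 from four-parameter logistic fit.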

T1 sequence (O00329 with tags, fused parts or gaps limits assumed): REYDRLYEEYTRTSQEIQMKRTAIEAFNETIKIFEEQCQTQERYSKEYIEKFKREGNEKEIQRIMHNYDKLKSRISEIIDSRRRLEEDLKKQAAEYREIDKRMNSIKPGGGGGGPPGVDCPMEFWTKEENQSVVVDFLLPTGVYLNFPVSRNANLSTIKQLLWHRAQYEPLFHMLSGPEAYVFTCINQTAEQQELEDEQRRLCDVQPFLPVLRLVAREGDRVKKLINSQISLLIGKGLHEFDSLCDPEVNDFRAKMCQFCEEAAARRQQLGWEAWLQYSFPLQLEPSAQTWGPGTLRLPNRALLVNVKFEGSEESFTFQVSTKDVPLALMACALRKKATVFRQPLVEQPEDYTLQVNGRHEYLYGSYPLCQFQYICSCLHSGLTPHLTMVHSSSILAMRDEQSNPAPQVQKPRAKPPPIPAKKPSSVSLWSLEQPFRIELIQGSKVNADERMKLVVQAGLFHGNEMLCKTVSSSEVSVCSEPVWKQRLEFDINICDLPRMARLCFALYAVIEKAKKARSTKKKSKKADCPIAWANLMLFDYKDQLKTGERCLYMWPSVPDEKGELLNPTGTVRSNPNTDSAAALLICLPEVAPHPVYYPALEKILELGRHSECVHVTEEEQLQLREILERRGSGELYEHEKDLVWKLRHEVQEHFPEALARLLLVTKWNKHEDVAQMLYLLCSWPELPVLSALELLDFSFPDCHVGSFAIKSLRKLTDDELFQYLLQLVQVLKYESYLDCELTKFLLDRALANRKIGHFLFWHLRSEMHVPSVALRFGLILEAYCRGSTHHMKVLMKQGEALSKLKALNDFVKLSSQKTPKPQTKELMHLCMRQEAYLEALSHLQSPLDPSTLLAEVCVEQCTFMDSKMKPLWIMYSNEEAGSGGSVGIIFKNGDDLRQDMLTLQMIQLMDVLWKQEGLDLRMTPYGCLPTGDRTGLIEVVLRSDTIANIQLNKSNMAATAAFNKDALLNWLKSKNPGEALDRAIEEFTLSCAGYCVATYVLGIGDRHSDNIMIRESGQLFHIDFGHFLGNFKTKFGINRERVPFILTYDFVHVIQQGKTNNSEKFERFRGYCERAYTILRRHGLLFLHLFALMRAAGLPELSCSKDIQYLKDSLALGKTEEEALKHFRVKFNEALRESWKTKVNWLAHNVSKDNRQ

Structure (SMILES): COc1ncc(-c2ccnc3ccc(O[C@H]4CCN(C(=O)C5CCS(=O)(=O)CC5)C4)cc23)cc1Cl [Example A1, {(S)-3-[4-(5-Chloro-6-methoxy-pyridin-3-yl)-quinolin-6-yloxy]-pyrrolidin-1-yl}-(1,1-dioxo-hexahydro-1lambda*6*-thiopyran-4-yl)-methanone]
- IC50: < 3 nM

Structure (SMILES): COc1ncc(-c2ccnc3ccc(O[C@H]4CCN(C(=O)C5CCS(=O)(=O)CC5)C4)cc23)cc1C(F)F [Example A6, {(S)-3-[4-(5-Difluoromethyl-6-methoxy-pyridin-3-yl)-quinolin-6-yloxy]-pyrrolidin-1-yl}-(1,1-dioxo-hexahydro-1lambda*6*-thiopyran-4-yl)-methanone]
- IC50: 4 nM

Structure (SMILES): COc1ncc(-c2ccnc3ccc(O[C@H]4CCN(C(=O)[C@@H]5CCN(C(C)=O)C5)C4)cc23)cc1C [Example A10, 1-((R)-3-{(S)-3-[4-(6-Methoxy-5-methyl-pyridin-3-yl)-quinolin-6-yloxy]-pyrrolidine-1-carbonyl}-pyrrolidin-1-yl)-ethanone]
- IC50: 5 nM

Structure (SMILES): COc1ncc(-c2ccnc3ccc(O[C@H]4CCN(C(=O)C5CCS(=O)(=O)CC5)C4)cc23)cc1C [Example A15, (1,1-Dioxo-hexahydro-1lambda*6*-thiopyran-4-yl)-{(S)-3-[4-(6-methoxy-5-methyl-pyridin-3-yl)-quinolin-6-yloxy]-pyrrolidin-1-yl}-methanone]
- IC50: 7 nM

Structure (SMILES): COc1ncc(-c2ccnc3ccc(O[C@H]4CCN(C(=O)[C@@H]5CCN(C(C)=O)C5)C4)cc23)cc1C(F)F [Example A24, 1-((R)-3-{(S)-3-[4-(5-Difluoromethyl-6-methoxy-pyridin-3-yl)-quinolin-6-yloxy]-pyrrolidine-1-carbonyl}-pyrrolidin-1-yl)-ethanone]
- IC50: 12 nM

Structure (SMILES): CCC(=O)N1CC[C@H](Oc2ccc3nccc(-c4cnc(S(C)(=O)=O)c(C)c4)c3c2)C1 [Example A25, 1-{(S)-3-[4-(6-Methanesulfonyl-5-methyl-pyridin-3-yl)-quinolin-6-yloxy]-pyrrolidin-1-yl}-propan-1-one]
- IC50: 12 nM

Structure (SMILES): COc1ncc(-c2ccnc3ccc(O[C@H]4CCN(C(=O)[C@@H]5CCN(C(C)=O)C5)C4)c(C)c23)cc1C(F)F [Example B1, 1-((R)-3-{(S)-3-[4-(5-Difluoromethyl-6-methoxy-pyridin-3-yl)-5-methylquinolin-6-yloxy]-pyrrolidine-1-carbonyl}-pyrrolidin-1-yl)-ethanone]
- IC50: 5 nM

Structure (SMILES): COc1ncc(-c2ccnc3ccc(O[C@H]4CCN(C(=O)C5CCS(=O)(=O)CC5)C4)c(C)c23)cc1C [Example B3, (1,1-Dioxo-hexahydro-1lambda*6*-thiopyran-4-yl)-{(S)-3-[4-(6-methoxy-5-methyl-pyridin-3-yl)-5-methyl-quinolin-6-yloxy]-pyrrolidin-1-yl}-methanone]
- IC50: 5 nM

Structure (SMILES): COc1ncc(-c2ccnc3cc(F)c(O[C@H]4CCN(C(=O)C5CCS(=O)(=O)CC5)C4)cc23)cc1C [Example C1, (1,1-Dioxo-hexahydro-1lambda*6*-thiopyran-4-yl)-{(S)-3-[7-fluoro-4-(6-methoxy-5-methyl-pyridin-3-yl)-quinolin-6-yloxy]-pyrrolidin-1-yl}-methanone]
- IC50: 302 nM

Structure (SMILES): Cc1cc(-c2ccnc3cc(F)c(O[C@H]4CCN(C(=O)C5CCOCC5)C4)cc23)cnc1S(C)(=O)=O [Example C2, {(S)-3-[7-Fluoro-4-(6-methanesulfonyl-5-methyl-pyridin-3-yl)-quinolin-6-yloxy]-pyrrolidin-1-yl}-(tetrahydro-pyran-4-yl)-methanone]
- IC50: 332 nM
